# pEC50: −log10 of the molar value. Starred links: 1 amine or outer side, 2 acyl side, 3 side chain; linkers in the order of their positions; H or OH if unused. Non-standard residues stand in square brackets, D forms with d. Residues, ends and D or L forms follow the SMILES beside them. Groups on a side chain read outwards from the residue. *: point of attachment. X2 = CCCCCCCCCCCCCCCC(=O)N[C@@H](CCC(=O)N[C@@H](CCC(=O)N[C@@H](CCC(=O)NCCCOCCOCCOCCCNC(=O)CCC(=O)NCCCOCCOCCOCCCNC(=O)CCC(=O)NCCCOCCOCCOCCCN*)C(=O)O)C(=O)O)C(=O)O; γGlu = O=C(O)[C@H](CCC(=O)[*:2])N[*:1]; Palmitoyl = CCCCCCCCCCCCCCCC(=O)*; Suc = O=C(CCC(=O)[*:2])[*:1]; αMeK = C[C@](N)(CCCCN)C(=O)O; Nle = CCCC[C@H](N)C(=O)O; AEEA = NCCOCCOCC(=O)O; Aib = CC(C)(N)C(=O)O
# Tests used:
# Relaxin receptor 1 [1] = molecular target: T1, Relaxin receptor 1 (Homo sapiens, UniProt Q9HBX9); assay: Agonist activity at human RXFP1 expressed in 2%HSA treated human OVCAR-5 cells assessed as intracellular cAMP accumulation incubated for 30 mins with 2% HSA pretreated compound by HTRF assay; assay type: functional, cell-based
# T1 sequence (Q9HBX9 whole entry): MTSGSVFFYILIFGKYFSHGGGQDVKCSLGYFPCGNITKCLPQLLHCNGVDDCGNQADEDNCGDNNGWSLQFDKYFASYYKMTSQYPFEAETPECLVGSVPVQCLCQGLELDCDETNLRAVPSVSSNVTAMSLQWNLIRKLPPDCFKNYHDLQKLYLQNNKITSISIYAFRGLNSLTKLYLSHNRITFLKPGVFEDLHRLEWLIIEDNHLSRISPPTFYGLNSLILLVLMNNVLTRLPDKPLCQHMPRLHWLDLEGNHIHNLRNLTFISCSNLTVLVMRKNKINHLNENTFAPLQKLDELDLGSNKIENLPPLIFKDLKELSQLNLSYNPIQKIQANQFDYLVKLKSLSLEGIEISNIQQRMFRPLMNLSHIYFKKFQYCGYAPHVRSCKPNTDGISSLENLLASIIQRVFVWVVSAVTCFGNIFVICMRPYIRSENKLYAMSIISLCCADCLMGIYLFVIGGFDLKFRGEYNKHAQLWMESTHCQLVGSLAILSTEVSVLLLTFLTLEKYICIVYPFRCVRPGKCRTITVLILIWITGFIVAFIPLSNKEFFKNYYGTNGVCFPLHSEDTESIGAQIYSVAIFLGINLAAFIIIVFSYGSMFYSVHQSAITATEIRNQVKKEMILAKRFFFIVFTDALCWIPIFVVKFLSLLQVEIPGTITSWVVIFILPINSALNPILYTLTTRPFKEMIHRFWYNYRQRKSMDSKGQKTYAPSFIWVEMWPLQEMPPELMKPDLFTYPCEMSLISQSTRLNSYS
# [2] = molecular target: T2, Relaxin receptor 1 (Homo sapiens) (UniProt Q9HBX9); assay: Agonist activity at human RXFP1 expressed in human OVCAR-5 cells assessed as intracellular cAMP accumulation by measuring maximal efficacy incubated for 30 mins by HTRF assay relative to control; assay type: functional, cell-based; conditions: filed as agonist
# T2 sequence (whole entry): T1 sequence (Q9HBX9 whole entry)
# [3] = Induction of mast cell degranulation in human LAD2 cells assessed as beta-hexosaminidase release by measuring 4-methylumbelliferyl N-acetyl-beta-D-glucosaminide hydrolysis incubated for 30 mins by plate reader analysis; assay type: toxicity, cell-based; conditions: probe 4-methylumbelliferyl N-acetyl-beta-D-glucosaminide
# [4] = Induction of mast cell degranulation in human LAD2 cells assessed as beta-hexosaminidase release by measuring maximal efficacy of 4-methylumbelliferyl N-acetyl-beta-D-glucosaminide hydrolysis at 33 uM incubated for 30 mins by plate reader analysis relative to control; assay type: toxicity, cell-based; conditions: probe 4-methylumbelliferyl N-acetyl-beta-D-glucosaminide
# [5] = molecular target: T2, Relaxin receptor 1 (Homo sapiens); assay: Agonist activity at human RXFP1 expressed in 2%HSA treated human OVCAR-5 cells assessed as intracellular cAMP accumulation by measuring maximal efficacy incubated for 30 mins with 2% HSA pretreated compound by HTRF assay relative to control; assay type: functional, cell-based; conditions: filed as agonist
# Relaxin receptor 1 [6] = molecular target: T1, Relaxin receptor 1; assay: Agonist activity at human RXFP1 expressed in human OVCAR-5 cells assessed as intracellular cAMP accumulation incubated for 30 mins by HTRF assay; assay type: functional, cell-based
# [7] = Induction of mast cell degranulation in human LAD2 cells assessed as beta-hexosaminidase release by measuring maximal efficacy of 4-methylumbelliferyl N-acetyl-beta-D-glucosaminide hydrolysis at 100 uM incubated for 30 mins by plate reader analysis relative to control; assay type: toxicity, cell-based; conditions: probe 4-methylumbelliferyl N-acetyl-beta-D-glucosaminide
# [8] = Half-life in male Sprague-Dawley rat at 1 mg/kg, iv measured after 198 hrs by LC-HRMS analysis; assay type: ADME, organism-based; conditions: in vivo
pEC50 (Relaxin receptor 1 [1]),Emax [2],Emax [5],pEC50 (Relaxin receptor 1 [6]),half-life [8],SMILES,EC50 at 30 min [3],"Emax at 0.5 h, 33 µM [4]","Emax at 0.5 h, 100 µM [7]"
6.98,98%,90%,8.87,–,CCCCCCCCCCCCCCCC(=O)N[C@@H](CCC(=O)N[C@@H](CCC(=O)N[C@@H](CCC(=O)NCCCOCCOCCOCCCNC(=O)CCC(=O)NCCCOCCOCCOCCCNC(=O)CCC(=O)NCCCOCCOCCOCCCNC(=O)CCC(=O)NCCCC[C@H](NC(=O)CNC(=O)[C@H](CCC(=O)O)NC(=O)C(C)(C)NC(=O)C(C)(C)NC(=O)[C@@H](NC(=O)[C@H](CCCCNC(C)=O)NC(=O)[C@H](C)NC(=O)[C@H](CCCNC(=N)N)NC(=O)[C@@H](NC(=O)[C@H](CCCCN)NC(=O)[C@H](CCC(=O)O)NC(=O)[C@H](CCCNC(=N)N)NC(=O)CNC(=O)[C@H](CCC(=O)O)NC(=O)[C@H](CC(C)C)NC(C)=O)C(C)C)[C@@H](C)CC)C(=O)N[C@@H](CO)C(=O)N[C@H](C(=O)N[C@@H](Cc1c[nH]c2ccccc12)C(=O)N[C@@H](CO)C(=O)NC(C)(C)C(=O)N[C@@H](CCCNC(=N)N)C(=O)N[C@@H](CCCCN)C(=O)N[C@@H](CCCCNC(C)=O)C(N)=O)[C@@H](C)O)C(=O)O)C(=O)O)C(=O)O (Ac-LEGREKVRAK(Ac)I[Aib][Aib]EGK([Suc-X2])STWS[Aib]RKK(Ac)-NH2),5.9 µM,67.5%,–
7.16,95%,90%,9.21,–,CCCCCCCCCCCCCCCC(=O)N[C@@H](CCC(=O)N[C@@H](CCC(=O)N[C@@H](CCC(=O)NCCCOCCOCCOCCCNC(=O)CCC(=O)NCCCOCCOCCOCCCNC(=O)CCC(=O)NCCCOCCOCCOCCCNC(=O)CCC(=O)NCCCC[C@H](NC(=O)[C@H](C)NC(=O)[C@H](CCCNC(=N)N)NC(=O)[C@@H](NC(=O)[C@H](CCCCN)NC(=O)[C@H](CCC(=O)O)NC(=O)[C@H](CCCNC(=N)N)NC(=O)CNC(=O)[C@H](CCC(=O)O)NC(=O)[C@H](CC(C)C)NC(C)=O)C(C)C)C(=O)N[C@H](C(=O)NC(C)(C)C(=O)NC(C)(C)C(=O)N[C@@H](CCC(=O)O)C(=O)NCC(=O)N[C@@H](CCC(N)=O)C(=O)N[C@@H](CO)C(=O)N[C@H](C(=O)N[C@@H](Cc1c[nH]c2ccccc12)C(=O)N[C@@H](CO)C(=O)NC(C)(C)C(=O)N[C@@H](CCCNC(=N)N)C(=O)N[C@@H](CCCCN)C(=O)N[C@@H](CCCCNC(C)=O)C(N)=O)[C@@H](C)O)[C@@H](C)CC)C(=O)O)C(=O)O)C(=O)O (Ac-LEGREKVRAK([Suc-X2])I[Aib][Aib]EGQSTWS[Aib]RKK(Ac)-NH2),12.5 µM,–,40%
< 5.70,90%,–,7.60,–,CCCCCCCCCCCCCCCC(=O)N[C@@H](CCC(=O)N[C@@H](CCC(=O)N[C@@H](CCC(=O)NCCCOCCOCCOCCCNC(=O)CCC(=O)NCCCOCCOCCOCCCNC(=O)CCC(=O)NCCCOCCOCCOCCCNC(=O)CCC(=O)NCCCC[C@H](NC(=O)[C@H](CCC(N)=O)NC(=O)CNC(=O)[C@H](CCC(=O)O)NC(=O)C(C)(C)NC(=O)C(C)(C)NC(=O)[C@@H](NC(=O)[C@H](CCCCNC(C)=O)NC(=O)[C@H](C)NC(=O)[C@H](CCCNC(=N)N)NC(=O)[C@@H](NC(=O)[C@H](CCCCN)NC(=O)[C@H](CCC(=O)O)NC(=O)[C@H](CCCNC(=N)N)NC(=O)CNC(=O)[C@H](CCC(=O)O)NC(=O)[C@H](CC(C)C)NC(C)=O)C(C)C)[C@@H](C)CC)C(=O)N[C@H](C(=O)N[C@@H](Cc1c[nH]c2ccccc12)C(=O)N[C@@H](CO)C(=O)NC(C)(C)C(=O)N[C@@H](CCCNC(=N)N)C(=O)N[C@@H](CCCCN)C(=O)N[C@@H](CCCCNC(C)=O)C(N)=O)[C@@H](C)O)C(=O)O)C(=O)O)C(=O)O (Ac-LEGREKVRAK(Ac)I[Aib][Aib]EGQK([Suc-X2])TWS[Aib]RKK(Ac)-NH2),12.8 µM,–,32%
7.10,87%,90%,9.68,–,CCCCCCCCCCCCCCCC(=O)N[C@@H](CCC(=O)N[C@@H](CCC(=O)N[C@@H](CCC(=O)NCCCOCCOCCOCCCNC(=O)CCC(=O)NCCCOCCOCCOCCCNC(=O)CCC(=O)NCCCOCCOCCOCCCNC(=O)CCC(=O)NCCCC[C@H](NC(=O)[C@@H](NC(=O)[C@H](CCCCNC(C)=O)NC(=O)[C@H](C)NC(=O)[C@H](CCCNC(=N)N)NC(=O)[C@@H](NC(=O)[C@H](CCCCN)NC(=O)[C@H](CCC(=O)O)NC(=O)[C@H](CCCNC(=N)N)NC(=O)CNC(=O)[C@H](CCC(=O)O)NC(=O)[C@H](CC(C)C)NC(C)=O)C(C)C)[C@@H](C)CC)C(=O)NC(C)(C)C(=O)N[C@@H](CCC(=O)O)C(=O)NCC(=O)N[C@@H](CCC(N)=O)C(=O)N[C@@H](CO)C(=O)N[C@H](C(=O)N[C@@H](Cc1c[nH]c2ccccc12)C(=O)N[C@@H](CO)C(=O)NC(C)(C)C(=O)N[C@@H](CCCNC(=N)N)C(=O)N[C@@H](CCCCN)C(=O)N[C@@H](CCCCNC(C)=O)C(N)=O)[C@@H](C)O)C(=O)O)C(=O)O)C(=O)O (Ac-LEGREKVRAK(Ac)IK([Suc-X2])[Aib]EGQSTWS[Aib]RKK(Ac)-NH2),13.6 µM,–,11%
7.05,94%,92%,9.42,–,CCCCCCCCCCCCCCCC(=O)N[C@H](CCC(=O)N[C@H](CCC(=O)N[C@H](CCC(=O)NCCCOCCOCCOCCCNC(=O)CCC(=O)NCCCOCCOCCOCCCNC(=O)CCC(=O)NCCCOCCOCCOCCCNC(=O)CCC(=O)NCCCC[C@H](NC(=O)[C@H](CO)NC(=O)[C@H](Cc1c[nH]c2ccccc12)NC(=O)[C@@H](NC(=O)[C@H](CO)NC(=O)[C@H](CCC(N)=O)NC(=O)CNC(=O)[C@H](CCC(=O)O)NC(=O)C(C)(C)NC(=O)C(C)(C)NC(=O)[C@@H](NC(=O)[C@H](CCCCNC(C)=O)NC(=O)[C@H](C)NC(=O)[C@H](CCCNC(=N)N)NC(=O)[C@@H](NC(=O)[C@H](CCCCN)NC(=O)[C@H](CCC(=O)O)NC(=O)[C@H](CCCNC(=N)N)NC(=O)CNC(=O)[C@H](CCC(=O)O)NC(=O)[C@H](CC(C)C)NC(C)=O)C(C)C)[C@@H](C)CC)[C@H](C)O)C(=O)N[C@@H](CCCNC(=N)N)C(=O)N[C@@H](CCCCN)C(=O)N[C@@H](CCCCNC(C)=O)C(N)=O)C(=O)O)C(=O)O)C(=O)O,13.4 µM,–,24%
7.70,89%,96%,9.57,7.3 h,CCCCCCCCCCCCCCCC(=O)N[C@@H](CCC(=O)N[C@@H](CCC(=O)N[C@@H](CCC(=O)NCCOCCOCC(=O)NCCOCCOCC(=O)NCCOCCOCC(=O)NCCOCCOCC(=O)NCCCC[C@H](NC(=O)[C@H](CCCCNC(C)=O)NC(=O)[C@H](C)NC(=O)[C@H](CCCNC(=N)N)NC(=O)[C@](C)(CCCCN)NC(=O)[C@H](CO)NC(=O)[C@H](Cc1ccccc1)NC(=O)[C@@H](NC(=O)[C@H](CO)NC(=O)[C@H](CCCC)NC(=O)CNC(=O)[C@H](CCC(=O)O)NC(=O)C(C)(C)NC(=O)C(C)(C)NC(=O)[C@@H](NC(=O)[C@H](CCCCNC(C)=O)NC(=O)[C@H](C)NC(=O)[C@H](CCCNC(=N)N)NC(=O)[C@@H](NC(=O)[C@H](CCCCN)NC(=O)[C@H](CCC(=O)O)NC(=O)[C@H](CCCNC(=N)N)NC(=O)CNC(=O)[C@H](CCC(=O)O)NC(=O)[C@H](CC(C)C)NC(C)=O)C(C)C)[C@@H](C)CC)[C@@H](C)O)C(N)=O)C(=O)O)C(=O)O)C(=O)O (Ac-LEGREKVRAK(Ac)I[Aib][Aib]EG[Nle]STFS[αMeK]RAK(Ac)K([AEEA-AEEA-AEEA-AEEA-γGlu-γGlu-γGlu-Palmitoyl])-NH2),3 µM,58%,–
